≈ marks a conversion by molar mass, not a printed value.
How the values were obtained:
Enterococcus faecium [1] = assay: Antibacterial activity against Enterococcus faecium SR7917 (VRE); format: functional
Enterococcus faecalis [2] = assay: Antimicrobial activity against Vancomycin - resistant Enterococcus faecalis SR7914 assessed as inhibition of bacterial growth; format: functional
Staphylococcus aureus [3] = assay: Antibacterial activity against Vancomycin-intermediate Staphylococcus aureus NRS1 assessed as bacterial growth inhibition; format: functional
Enterococcus faecium [4] = assay: Antibacterial activity against Vancomycin-resistant Enterococcus faecium assessed as colony forming unit at 20 times MIC concentration measured after 21 days by time kill assay; format: functional; conditions: time 21 day
Enterococcus faecium [5] = assay: Antimicrobial activity against Vancomycin-resistant (Van A) Enterococcus faecium ATCC 51559 assessed as reduction in microbial growth; format: functional
Enterococcus faecium [6] = assay: Antimicrobial activity against Vancomycin-resistant (Van S) Enterococcus faecium ATCC 51559 assessed as reduction in microbial growth; format: functional
Pseudomonas aeruginosa [7] = assay: Antibacterial activity against multi drug resistant Pseudomonas aeruginosa assessed as reduction in microbial growth after 16 to 18 hrs by microbroth dilution method; format: functional; conditions: time 16-18 hrs
Pseudomonas aeruginosa [8] = assay: Antibacterial activity against colistin-resistant Pseudomonas aeruginosa PA101243 assessed as reduction in bacterial growth after 18 hrs by microbroth dilution method; format: functional
Acinetobacter baumannii [9] = assay: Antibacterial activity against Acinetobacter baumannii R4942 assessed as reduction in bacterial growth in presence of teicoplanin by broth microdilution method; format: functional
Enterobacter cloacae = assay: Antibacterial activity against Enterobacter cloacae NDM-1 assessed as reduction in bacterial growth by broth microdilution method; format: functional
Pseudomonas aeruginosa [10] = assay: Antibacterial activity against Pseudomonas aeruginosa R590 assessed as reduction in bacterial growth by broth microdilution method; format: functional
Acinetobacter baumannii [11] = assay: Antibacterial activity against Acinetobacter baumannii R4942 assessed as reduction in bacterial growth by broth microdilution method; format: functional
Klebsiella pneumoniae = assay: Antibacterial activity against Klebsiella pneumoniae R3949 assessed as reduction in bacterial growth in presence of Meropenem by broth microdilution method; format: functional
Enterococcus faecium [12] = assay: Antimicrobial activity against Vancomycin-resistant Enterococcus faecium ATCC 51559 assessed as inhibition in microbial growth measured after 48 hrs by microbroth dilution method; format: functional
Escherichia coli [13] = assay: Antimicrobial activity against Escherichia coli ATCC 8739 assessed as microbial growth inhibition in presence of Vancomycin by agar dilution method; format: functional
Pseudomonas aeruginosa [14] = assay: Antibacterial activity against Pseudomonas aeruginosa R590 assessed as reduction in bacterial growth in presence of vancomycin by broth microdilution method; format: functional
Escherichia coli [15] = assay: Antibacterial activity against Escherichia coli ATCC 25922 assessed as bacterial growth inhibition measured after 48 hrs in presence of vancomycin; format: functional
Acinetobacter baumannii [16] = assay: Antimicrobial activity against Acinetobacter baumannii assessed as microbial growth inhibition; format: functional
Acinetobacter baumannii [17] = assay: Antibacterial activity against Acinetobacter baumannii R4942 assessed as reduction in bacterial growth in presence of telavancin by broth microdilution method; format: functional
Acinetobacter baumannii [18] = assay: Antimicrobial activity against Acinetobacter baumannii ATCC 17978 assessed as microbial growth inhibition; format: functional
Escherichia coli [19] = assay: Antibacterial activity against Escherichia coli assessed as bacterial growth inhibition measured after 48 hrs in presence of vancomycin; format: functional
Staphylococcus aureus [20] = assay: Antimicrobial activity against Vancomycin-resistant Staphylococcus aureus incubated for 20 hrs by broth dilution method; format: functional
Staphylococcus aureus [21] = assay: Antimicrobial activity against vancomycin-resistant Staphylococcus aureus assessed as microbial growth reduction; format: functional
Enterococcus faecium [22] = assay: Antibacterial activity against Vancomycin-resistant Enterococcus faecium assessed as reduction in bacterial growth measured after 48 hrs by microbroth dilution method; format: functional
[23] = Binding affinity to D-Ala-D-Ala assessed as dissociation constant
[24] = Binding affinity to D-Ala-D-Lac assessed as dissociation constant
Staphylococcus aureus [25] = assay: Antibacterial activity against Staphylococcus aureus assessed as biofilm formation; format: functional
Escherichia coli [26] = assay: Synergistic antibacterial activity against Escherichia coli in presence of nitrofurantoin; format: functional
Enterococcus faecalis [27] = assay: Antibiofilm activity against Enterococcus faecalis ATCC 47077 biofilms assessed as biofilm eradication; format: functional
Escherichia coli [28] = assay: Synergistic antibacterial activity against multidrug-resistant Escherichia coli assessed as reduction in bacterial viability after 12 hrs in presence of 1/2 MIC of nitrofurantoin; format: functional
Enterococcus faecalis [29] = assay: Antimicrobial activity against Vancomycin - resistant Enterococcus faecalis assessed as inhibition of bacterial growth; format: functional
Pseudomonas aeruginosa [30] = assay: Synergistic antibacterial activity against multidrug-resistant Pseudomonas aeruginosa ATCC 27853 assessed as reduction in bacterial viability after 12 hrs in presence of 1/2 MIC of vancomycin; format: functional
Escherichia coli [31] = assay: Synergistic antibacterial activity against multidrug-resistant Escherichia coli assessed as reduction in bacterial viability after 12 hrs in presence of 1/2 MIC of trimethoprim; format: functional
Escherichia coli [32] = assay: Synergistic antibacterial activity against Escherichia coli in presence of Trimethoprim; format: functional
Pseudomonas aeruginosa [33] = assay: Antibacterial activity against Pseudomonas aeruginosa ATCC 27853 assessed as bacterial growth inhibition measured after 24 hrs by microbroth dilution method; format: functional
[34] = Enterococcus faecium, ATCC 51559, read-out: MIC

Molecule: CCCCCCCCCCCCCCCCC[C@H]1CN(C)[C@@H]([C@H](O[C@@H]2O[C@H](CN)[C@@H](O)[C@H]2O)[C@H]2O[C@@H](n3ccc(=O)[nH]c3=O)[C@H](O)[C@@H]2O)C(=O)N(C)[C@@H]1C(=O)O
- MIC (Enterococcus faecium [1]): 8 µg/mL (≈ 10 µM)
- MIC (Enterococcus faecalis [2]): 8 µg/mL (≈ 10 µM)

Molecule: CN[C@H](CC(C)C)C(=O)N[C@H]1C(=O)N[C@@H](CC(N)=O)C(=O)N[C@H]2C(=O)N[C@H]3C(=O)N[C@H](C(=O)N[C@H](C(=O)NCCCCCCN(Cc4ccccn4)Cc4ccccn4)c4cc(O)cc(O)c4-c4cc3ccc4O)[C@H](O)c3ccc(c(Cl)c3)Oc3cc2cc(c3O[C@@H]2O[C@H](CO)[C@@H](O)[C@H](O)[C@H]2O[C@H]2C[C@](C)(N)[C@H](O)[C@H](C)O2)Oc2ccc(cc2Cl)[C@H]1O
- MIC (Staphylococcus aureus [3]): 1 µM
- Activity (Enterococcus faecium [4]): 5 log10/ml
- MIC (Enterococcus faecium [5]): 1.5 µM
- MIC (Enterococcus faecium [5]; [34]): 2 µM

Molecule: CCCCCCCCCC(=O)O[C@@H]1c2ccc(c(Cl)c2)Oc2cc3cc(c2O[C@@H]2O[C@H](CO)[C@@H](O)[C@H](O)[C@H]2O[C@H]2C[C@](C)(N)[C@H](O)[C@H](C)O2)Oc2ccc(cc2Cl)[C@@H](O)[C@@H](NC(=O)[C@@H](CC(C)C)NC)C(=O)N[C@@H](CC(N)=O)C(=O)N[C@H]3C(=O)N[C@H]2C(=O)N[C@@H]1C(=O)N[C@H](C(=O)O)c1ccccc1-c1cccc2c1
- MIC (Enterococcus faecium [6]): 0.25 µg/mL

Molecule: NC[C@H]1O[C@H](O[C@H]2[C@H](O)[C@@H](O[C@H]3O[C@H](CO)[C@@H](O)[C@H](N)[C@H]3O)[C@H](N)C[C@@H]2N)[C@H](N)C[C@@H]1O [TOBRAMYCIN]
- MIC (Pseudomonas aeruginosa [7]): 0.7 µM

Molecule: C[C@@H](O)[C@H]1C(=O)N2C(C(=O)O)=C(S[C@@H]3CN[C@H](C(=O)N(C)C)C3)[C@H](C)[C@H]12 [MEROPENEM]
- MIC (Pseudomonas aeruginosa [8]): < 1 µg/mL

Molecule: CCCCCCCCCCCCCC[N+](C)(C)CCCNC(=O)[C@H]1NC(=O)[C@H]2NC(=O)[C@H](NC(=O)[C@@H]3NC(=O)[C@H](CC(N)=O)NC(=O)[C@H](NC(=O)[C@@H](CC(C)C)NC)[C@H](O)c4ccc(c(Cl)c4)Oc4cc3cc(c4O[C@@H]3O[C@H](CO)[C@@H](O)[C@H](O)[C@H]3O[C@H]3C[C@](C)(N)[C@H](O)[C@H](C)O3)Oc3ccc(cc3Cl)[C@H]2O)c2ccc(O)c(c2)-c2c(O)cc(O)cc21
- MIC (Acinetobacter baumannii [9]): ≤ 2 µg/mL
- MIC (Enterobacter cloacae): 12.5 µM
- MIC (Pseudomonas aeruginosa [10]): 6.1 µM
- MIC (Acinetobacter baumannii [11]): 3 µM
- MIC (Klebsiella pneumoniae): 3.15 µg/mL
- MIC (Enterococcus faecium [12]): 1.2 µM
- MIC (Escherichia coli [13]): 6 µg/mL
- MIC (Pseudomonas aeruginosa [14]): 0.5 µg/mL
- MIC (Escherichia coli [15]): 12.5 µg/mL
- MIC (Acinetobacter baumannii [16]): 3 µM
- MIC (Acinetobacter baumannii [17]): < 1 µg/mL
- MIC (Acinetobacter baumannii [18]): ≤ 2 µg/mL
- MIC (Escherichia coli [19]): 6.25 µg/mL

Molecule: CCCCCCCCCCC(=O)N[C@@H](CCCCN)C(=O)N[C@@H](CCCCN)C(=O)NC(CCCCNC(=O)[C@H]1NC(=O)[C@H]2NC(=O)[C@H](NC(=O)[C@@H]3NC(=O)[C@H](CC(N)=O)NC(=O)[C@H](NC(=O)[C@@H](CC(C)C)NC)[C@H](O)c4ccc(c(Cl)c4)Oc4cc3cc(c4O[C@@H]3O[C@H](CO)[C@@H](O)[C@H](O)[C@H]3O[C@H]3C[C@](C)(N)[C@H](O)[C@H](C)O3)Oc3ccc(cc3Cl)[C@H]2O)c2ccc(O)c(c2)-c2c(O)cc(O)cc21)C(=O)O (stereo not given in full)
- MIC (Staphylococcus aureus [3]): 0.5 µg/mL
- MIC (Enterococcus faecium [5]; [34]): 6 µg/mL
- MIC (Staphylococcus aureus [20]): 1 µg/mL
- MIC (Staphylococcus aureus [21]): 0.05 µg/mL (≈ 0.025 µM)

Molecule: H-ILRWPWWPWRRK-NH2 [OMIGANAN]
- MIC (Enterococcus faecium [22]): 2 µg/mL

Molecule: CN[C@H](CC(C)C)C(=O)N[C@H]1C(=O)N[C@@H](CC(N)=O)C(=O)N[C@H]2C(=O)N[C@H]3C(=O)N[C@H](C(=O)N[C@H](C(=O)NCCSSCCNC(=O)[C@H]4NC(=O)[C@H]5NC(=O)[C@H](NC(=O)[C@@H]6NC(=O)[C@H](CC(N)=O)NC(=O)[C@H](NC(=O)[C@@H](CC(C)C)NC)[C@H](O)c7ccc(c(Cl)c7)Oc7cc6cc(c7O[C@@H]6O[C@H](CO)[C@@H](O)[C@H](O)[C@H]6O[C@H]6C[C@](C)(N)[C@H](O)[C@H](C)O6)Oc6ccc(cc6Cl)[C@H]5O)c5ccc(O)c(c5)-c5c(O)cc(O)cc54)c4cc(O)cc(O)c4-c4cc3ccc4O)[C@H](O)c3ccc(c(Cl)c3)Oc3cc2cc(c3O[C@@H]2O[C@H](CO)[C@@H](O)[C@H](O)[C@H]2O[C@H]2C[C@](C)(N)[C@H](O)[C@H](C)O2)Oc2ccc(cc2Cl)[C@H]1O
- Kd [23]: 1.9 µM
- MIC (Enterococcus faecium [5]; [34]): 11 µM
- MIC (Staphylococcus aureus [20]): 11 µM
- Kd [24]: 440 µM

Molecule: CN[C@H](CC(C)C)C(=O)N[C@H]1C(=O)N[C@@H](CC(N)=O)C(=O)N[C@H]2C(=O)N[C@H]3C(=O)N[C@H](C(=O)N[C@H](C(=O)O)c4cc(O)cc(O)c4-c4cc3ccc4O)[C@H](O)c3ccc(c(Cl)c3)Oc3cc2cc(c3O[C@@H]2O[C@H](CO)[C@@H](O)[C@H](O)[C@H]2O[C@H]2C[C@](C)(N)[C@H](O)[C@H](C)O2)Oc2ccc(cc2Cl)[C@H]1O [VANCOMYCIN]
- MBEC (Staphylococcus aureus [25]): >512 µg/mL
- MIC (Escherichia coli [26]): 6.25 µg/mL
- MBEC (Enterococcus faecalis [27]): >512 µg/mL
- MIC (Escherichia coli [28]): 12.5 µg/mL
- MIC (Enterococcus faecalis [29]): 31 µg/mL (≈ 21.4 µM)
- fractional inhibitory concentration index (FICI) (Pseudomonas aeruginosa [30]): <0.5
- MIC (Escherichia coli [31]): 3.5 µg/mL
- MIC (Escherichia coli [32]): 0.2 µg/mL
- MIC (Pseudomonas aeruginosa [33]): 0.5 µg/mL (≈ 0.345 µM)

Source: ChEMBL document CHEMBL5230081, “Battle against Vancomycin-Resistant Bacteria: Recent Developments in Chemical Strategies” (J Med Chem, 2019)
